Experimental data: ChEMBL document CHEMBL3046896, “Synthesis and antitumor screening of new series of pyrimido-[4,5-b]quinolines and [1,2,4]triazolo[2,3:3,4]pyrimido[6,5-b]quinolines” (Med Chem Res, 2013)
Active and inactive are the calls of the source. No cut-off for these calls is given here.

Columns and labels:
[1] = Displacement of methyl green from DNA after 24 hr by spectrophotometric analysis
[2] = Binding affinity to DNA at 5 mg/ml by TLC analysis
[3] = test system: MCF7; test: Cytotoxicity against Homo sapiens (human) MCF7 cells after 48 hr by SRB assay; format: functional, cell-based; conditions: MCF7, 48 h

| Compound | IC50 [1] | Activity [2] | IC50 [3] |
| --- | --- | --- | --- |
| O=c1[nH]cnc2c1C(c1ccccc1)C1=C(CCCC1)N2 (stereo not drawn) | 88 µM | inactive | > 10 µM |
| COc1ccc(C2C3=C(CCCC3)Nc3ncn(/N=C/c4ccc(Cl)cc4)c(=N)c32)cc1OC (stereo not drawn) | 14 µM | Active | 3.76 µM |
| N=c1c2c([nH]c(=S)n1-c1ccccc1)NC1=C(CCCC1)C2c1ccc(Cl)cc1 (stereo not drawn) | 55 µM | Active | – |
| COc1ccc(C2C3=C(CCCC3)Nc3[nH]c(=S)[nH]c(=S)c32)cc1OC (stereo not drawn) | 38 µM | Active | > 10 µM |
| Cc1nc2c(c(=O)[nH]1)C(c1cccc(Br)c1)C1=C(CCCC1)N2 (stereo not drawn) | 32 µM | Active | 4.03 µM |
| CCCCn1c(=S)[nH]c2c(c1=N)C(c1ccc(Cl)cc1)C1=C(CCCC1)N2 (stereo not drawn) | 88 µM | inactive | – |
| CCCCn1c(=S)[nH]c2c(c1=N)C(c1ccccc1)C1=C(CCCC1)N2 (stereo not drawn) | 72 µM | Active | 5.7 µM |
| N=c1c2c([nH]c(=S)n1-c1ccccc1)NC1=C(CCCC1)C2c1ccccc1 (stereo not drawn) | 25 µM | Active | 6.98 µM |
| Brc1cccc(C2C3=C(CCCC3)Nc3ncn4ncnc4c32)c1 (stereo not drawn) | 90 µM | inactive | > 10 µM |
| Cc1nc2c(c(=O)[nH]1)C(c1ccccc1)C1=C(CCCC1)N2 (stereo not drawn) | 22 µM | Active | 4.97 µM |
| N=c1c2c(ncn1/N=C/c1ccc(Cl)cc1)NC1=C(CCCC1)C2c1ccccc1 (stereo not drawn) | 88 µM | inactive | – |
| COc1ccc(/C=N/n2cnc3c(c2=N)C(c2ccc(OC)c(OC)c2)C2=C(CCCC2)N3)cc1OC (stereo not drawn) | 38 µM | Active | 6.17 µM |
| N=c1c2c(ncn1/N=C/c1ccc(Cl)cc1)NC1=C(CCCC1)C2c1ccc(Cl)cc1 (stereo not drawn) | 70 µM | Active | > 10 µM |
| CCOC(=O)/N=c1/c2c(ncn1NC(=O)OCC)NC1=C(CCCC1)C2c1ccccc1 (stereo not drawn) | 40 µM | Active | 5.44 µM |
| S=c1[nH]c2c(c(=S)[nH]1)C(c1cccc(Br)c1)C1=C(CCCC1)N2 (stereo not drawn) | 76 µM | Active | 4.5 µM |
| COc1ccc(/C=N/n2cnc3c(c2=N)C(c2ccccc2)C2=C(CCCC2)N3)cc1OC (stereo not drawn) | 32 µM | Active | 5.37 µM |
| S=c1[nH]c2c(c(=S)[nH]1)C(c1ccccc1)C1=C(CCCC1)N2 (stereo not drawn) | 72 µM | Active | – |
| c1ccc(C2C3=C(CCCC3)Nc3ncn4ncnc4c32)cc1 (stereo not drawn) | 88 µM | inactive | > 10 µM |
| BLEOMYCIN | 10 µM | – | – |
| COc1ccc(C2C3=C(CCCC3)Nc3[nH]c(=S)n(-c4ccccc4)c(=N)c32)cc1OC (stereo not drawn) | 40 µM | Active | 5.3 µM |
| COc1ccc(C2C3=C(CCCC3)Nc3nc(C)[nH]c(=O)c32)cc1OC (stereo not drawn) | 25 µM | Active | > 10 µM |
| COc1ccc(C2C3=C(CCCC3)Nc3ncnc(N)c32)cc1OC (stereo not drawn) | 12 µM | Active | 3.62 µM |
| Nc1ncnc2c1C(c1ccc(Cl)cc1)C1=C(CCCC1)N2 (stereo not drawn) | 25 µM | Active | 3.89 µM |
